Measured values reported in the NIST ThermoML archive (doi:10.1021/je500918t).
± gives the expanded uncertainty stated by the source.

Legend:
[1] = Crystal; DTA
[2] = Molar enthalpy of transition or fusion; details: Crystal; DSC

SMILES | Normal melting temperature [1] [°C] | Molar enthalpy of transition or fusion [2] [kcal/mol]
Nc1ccc(S(=O)(=O)Nc2ccccc2Cl)c(Cl)c1 [4-amino-2-chloro-N-(2-chlorophenyl)benzenesulfonamide] | 232 ± 0.5 | 12.3 ± 0.335
Nc1ccc(S(=O)(=O)Nc2ccc(Cl)cc2)c(Cl)c1 [4-amino-2-chloro-N-(4-chlorophenyl)benzenesulfonamide] | 195.6 ± 0.5 | 8.34 ± 0.287
CCN(CC)S(=O)(=O)c1ccc(N)cc1 [4-amino-N,N-diethylbenzenesulfonamide] | 105.7 ± 0.5 | 4.64 ± 0.263
CN(C)S(=O)(=O)c1ccc(N)cc1 [4-amino-N,N-dimethylbenzenesulfonamide] | 171.5 ± 0.5 | 7.1 ± 0.287
Nc1ccc(S(=O)(=O)N(c2ccccc2)c2ccccc2)cc1 [4-amino-N,N-diphenylbenzenesulfonamide] | 179.5 ± 0.5 | 8.39 ± 0.287
Cc1ccc(NS(=O)(=O)c2ccc(N)cc2)c(Cl)c1 [4-amino-N-(2-chloro-4-methylphenyl)benzenesulfonamide] | 155.7 ± 0.5 | 7.58 ± 0.287
Cc1cc(N)ccc1S(=O)(=O)Nc1ccccc1Cl [4-amino-N-(2-chlorophenyl)-2-methylbenzenesulfonamide] | 206.4 ± 0.5 | 11.3 ± 0.335
CCc1ccc(NS(=O)(=O)c2ccc(N)cc2)cc1 [4-amino-N-(4-ethylphenyl)benzenesulfonamide] | 163.1 ± 0.5 | 8.68 ± 0.287
COc1ccc(NS(=O)(=O)c2ccc(N)cc2)cc1 [4-amino-N-(4-methoxyphenyl)benzenesulfonamide] | 194.2 ± 0.5 | 9.23 ± 0.311
O=S(=O)(Nc1ccccc1Cl)c1ccccc1 [N-(2-chlorophenyl)benzenesulfonamide] | 125.1 ± 0.5 | 8.01 ± 0.287
O=[N+]([O-])c1ccccc1NS(=O)(=O)c1ccccc1 [N-(2-nitrophenyl)benzenesulfonamide] | 98.7 ± 0.5 | 5.33 ± 0.263
O=S(=O)(Nc1ccc(Cl)cc1)c1ccccc1 [N-(4-chlorophenyl)benzenesulfonamide] | 121.5 ± 0.5 | 6.17 ± 0.263
CC(=O)Nc1ccncc1NS(=O)(=O)c1ccc([N+](=O)[O-])cc1 [N-[3-[[(4-nitrophenyl)sulfonyl]amino]-4-pyridinyl]-acetamide] | 238.0 ± 0.5 | 9.89 ± 0.311
O=S(=O)(Nc1ccccc1)c1ccccc1 [N-phenylbenzenesulfonamide] | 110.4 ± 0.5 | 5.62 ± 0.263

Further lines, results first:

Normal melting temperature [1] [°C] | Molar enthalpy of transition or fusion [2] [kcal/mol] | SMILES
178.2 ± 0.5 | 9.56 ± 0.311 | Cc1cc(N)ccc1S(=O)(=O)Nc1ccccc1[N+](=O)[O-] [4-amino-2-methyl-N-(2-nitrophenyl)benzenesulfonamide]
181.2 ± 0.5 | 9.78 ± 0.311 | Nc1ccc(S(=O)(=O)Nc2cccc(Cl)c2Cl)cc1 [4-amino-N-(2,3-dichlorophenyl)benzenesulfonamide]
188.1 ± 0.5 | 9.49 ± 0.311 | Nc1ccc(S(=O)(=O)Nc2cc(Cl)c(Cl)cc2Cl)cc1 [4-amino-N-(2,4,5-trichlorophenyl)benzenesulfonamide]
172.8 ± 0.5 | 9.87 ± 0.311 | Nc1ccc(S(=O)(=O)Nc2cc(Cl)ccc2Cl)cc1 [4-amino-N-(2,5-dichlorophenyl)benzenesulfonamide]
188 ± 0.5 | 9.46 ± 0.311 | Nc1ccc(S(=O)(=O)Nc2ccc([N+](=O)[O-])cc2Br)cc1 [4-amino-N-(2-bromo-4-nitrophenyl)benzenesulfonamide]
204.5 ± 0.5 | 10.9 ± 0.311 | Cc1ccc(NS(=O)(=O)c2ccc(N)cc2)cc1Cl [4-amino-N-(3-chloro-4-methylphenyl)benzenesulfonamide]
149.6 ± 0.5 | 8.8 ± 0.287 | Cc1cc(Cl)ccc1NS(=O)(=O)c1ccc(N)cc1 [4-amino-N-(4-chloro-2-methylphenyl)benzenesulfonamide]
173.4 ± 0.5 | 8.53 ± 0.287 | Cc1cc(N)ccc1S(=O)(=O)Nc1ccc(Cl)cc1 [4-amino-N-(4-chlorophenyl)-2-methylbenzenesulfonamide]
194.8 ± 0.5 | 5.69 ± 0.263 | Nc1ccc(S(=O)(=O)Nc2ccc(Cl)cc2)cc1 [4-amino-N-(4-chlorophenyl)benzenesulfonamide]
149.6 ± 0.5 | 8.8 ± 0.287 | Cc1ccc(Cl)cc1NS(=O)(=O)c1ccc(N)cc1 [4-amino-N-(5-chloro-2-methylphenyl)benzenesulfonamide]
109.1 ± 0.5 | 4.09 ± 0.263 | CNS(=O)(=O)c1ccc(N)cc1 [4-amino-N-methylbenzenesulfonamide]
256.6 ± 0.5 | 7.6 ± 0.287 | O=[N+]([O-])c1ccc(S(=O)(=O)Nc2nccs2)cc1 [4-nitro-N-2-thiazolylbenzenesulfonamide]
114.1 ± 0.5 | 6.5 ± 0.263 | O=S(=O)(Nc1cccc(Cl)c1Cl)c1ccccc1 [N-(2,3-dichlorophenyl)benzenesulfonamide]
131.0 ± 0.5 | 6.72 ± 0.287 | O=S(=O)(Nc1ncccc1Cl)c1ccccc1 [N-(3-chloro-2-pyridinyl)benzenesulfonamide]
161.0 ± 0.5 | 10.9 ± 0.311 | Cc1ccc(NS(=O)(=O)c2ccc([N+](=O)[O-])cc2)nc1 [N-(5-methylpyridin-2-yl)-4-nitrobenzenesulfonamide]
154.8 ± 0.5 | 5.38 ± 0.263 | CCOC(=O)c1ccc(NS(=O)(=O)c2ccccc2)nc1 [ethyl 6-(phenylsulfonamido)nicotinate]
